IC50 data for 22 compounds are collected here from patent US20250049812A1, “Compounds that Inhibit Necroptosis and Their Preparation Methods” (SHANGHAI INSTITUTE OF ORGANIC CHEMISTRY, CHINESE ACADEMY OF …, priority 2021, published 2025).

In one assay the test system is Jurkat FADD (−/−) Cells. Nature of the assay: TNF-α induced necroptosis of Jurkat FADD-deficient cells (CellTiter-Glo cell survival). Type of assay: cell-based, human. As to conditions: Homo sapiens, Jurkat, 13 h. The procedure:
1. Cell Activity Testing System (TNF-α Induces the Necroptosis of Jurkat Cells, the Human Leukemia Cells Deficient in FADD).
(1) Cell culture: Jurkat FADD-deficient cells were cultured in an RPMI 1640 medium with 10% fetal bovine serum (FBS), 100 U/mL penicillin, and 100 […]. The cells were cultured in a cell culture incubator at 37° C. with 5% CO2. And all the cells were cryopreserved in a complete medium containing 5-10% DMSO. Medium change and passage were performed 3-4 times per week.
(4) Experimental scheme: The system of TNF-α inducing the necroptosis of Jurkat FADD-deficient cells was used to screen for compounds with RIPKl kinase inhibitory activity.
Jurkat FADD-deficient cells were evenly inoculated into a 384-well plate with each well added with a 40 μL complete culture medium, followed by the addition of 5 μL of the under-testing compound to each well. The initial concentration of the compounds was set at 25 μM (for some compounds with higher activity, the initial concentration was set at 0.5 μM), with a three-fold gradient dilution, totaling 12 gradient points. Three replicate wells were set for each compound. In addition, there was a blank control group and a control group with TNFα stimulation only. After the compound was added, the mixture needed to be centrifuged and incubated in a cell culture incubator at 37° C. containing 5% CO2 for 1 hour. After that, 5 μL of 5 ng/mL TNFα was added to stimulate the occurrence of necroptosis. After centrifugation and mixing, the mixture was placed in the cell culture incubator for 13 hours (until the cell death rate reaches 65% in the group with only TNF-α), with a total volume of 50 μL per well. Then, the steps below were followed to test the cell survival rate.
The CellTiter-Glo® Buffer was removed from the reagent kit, equilibrated to room temperature, and used to dissolve the CellTiter-Glo® Substrate. The CellTiter-Glo® Reagent obtained could be directly used for the experiment.
15 μL of CellTiter-Glo® Reagent which has been equilibrated to room temperature was added to each well, and incubated in the dark for 15 minutes. After that, a microplate reader (Enspire Multimode Plate Reader of PerkinElmer, USA) was used to measure the chemiluminescence.
(In general: ATP-based viability assays read luminescence as a measure of living cells.)
Broadly, the IC50 is the concentration that gives 50% inhibition. For the compound `CN1C(=O)[C@@H](NC(=O)c2nnc(Cc3ccccc3)[nH]2)Cn2cc(C(=O)O)c3cccc1c32` [T-94, (S)-3-(5-benzyl-4H-1,2,4-triazole-3-carboxamide)-1-methyl-2-oxo-1,2,3,4-tetrahydro-[1,4] diazabicyclo[3,2,1-hi] indole-7-carboxylic Acid], the IC50 was over 1 µM.

Staying with this assay, now noted: Homo sapiens; TNF-α induced necroptosis, Jurkat FADD-deficient cells, 13 hours, CellTiter-Glo; read-out: IC50.
Turning to `CN1C(=O)C(NC(=O)c2nnc(Cc3ccccc3)[nH]2)Cc2cn(-c3cnccc3CO)c3cccc1c23` (racemic) [T-48, (±)-5-benzyl-N-(6-(4-(hydroxymethyl)pyridin-3-yl)-1-methyl-2-oxo-2,3,4,6-tetrahydro-1H-azacyclo [4,3,2-cd]indol-3-yl)-4H-1,2,4-triazole-3-carboxamide], the concentration for half-maximal inhibition (IC50) was under 0.01 µM.
On the same count and under the same terms, to `CN1C(=O)C(NC(=O)c2nnc(Cc3ccccc3)[nH]2)Cn2cc(-c3cc(C(F)(F)F)nn3C)c3cccc1c32` (racemic) [T-18, (±)-5-benzyl-N-(1-methyl-7-(1-methyl-3-(trifluoromethyl)-1H-pyrazol-5-yl)-2-oxo-1,2,3,4-tetrahydro-[1,4]diazepino [3,2,1-hi]indol-3-yl)-4H-1,2,4-triazole-3-carboxamide] belongs under 0.01 µM; to `CN1C(=O)C(NC(=O)c2nnc(Cc3ccccc3)[nH]2)Cc2cn(-c3ccccc3)c3cccc1c23` (racemic) [T-24, (±)-5-benzyl-N-(1-methyl-2-oxo-6-phenyl-2,3,4,6-tetrahydro-1H-azacyclo [4,3,2-cd]indol-3-yl)-4H-1,2,4-triazole-3-carboxamide], 0.01 to 0.1 µM; to `CN1C(=O)C(NC(=O)c2ncc(Cc3ccccc3)o2)Cn2cc(-c3ccnn3C)c3cccc1c32` (racemic) [T-83, (±)-5-benzyl-N-(1-methyl-7-(1-methyl-1H-pyrazol-5-yl)-2-oxo-1,2,3,4-tetrahydro-[1,4]diazepino[3,2,1-hi]indol-3-yl)-oxazole-2-carboxamide], under 0.01 µM.
The same measure, in the same setting: the figure for `CN1C(=O)C(NC(=O)c2ncc(Cc3ccccc3)o2)Cc2cn(-c3ncccc3C(F)(F)F)c3cccc1c23` (racemic) [T-63, (±)-5-benzyl-N-(1-methyl-2-oxo-6-(3-(trifluoromethyl)pyridin-2-yl)-2,3,4,6-tetrahydro-1H-azacyclo [4,3,2-cd]indol-3-yl) oxazole-2-carboxamide] is under 0.01 µM; for `CN1C(=O)C(NC(=O)c2nnc(Cc3ccccc3)[nH]2)Cn2cc(-c3cnn(C)c3)c3cccc1c32` (racemic) [T-15, (±)-5-benzyl-N-(1-methyl-7-(1-methyl-1H-pyrazol-4-yl)-2-oxy-1,2,3,4-tetrahydro-[1,4]diazepino [3,2,1-hi]indol-3-yl)-4H-1,2,4-triazole-3-carboxamide] it is under 0.01 µM.
`CN1C(=O)C(NC(=O)c2nnc(Cc3ccccc3)[nH]2)Cn2ccc3cc(C#Cc4cnn(C)c4)cc1c32` (racemic) [T-9, (±)-5-benzyl-N-(1-methyl-9-((1-methyl-1H-pyrazol-4-yl)ethynyl)-2-oxy-1,2,3,4-tetrahydro-[1,4]diazepino [3,2,1-hi]indol-3-yl)-4H-1,2,4-triazole-3-carboxamide]: the half-inhibitory concentration (IC50) is under 0.01 µM.
Still for that read-out and setting: to `CC(C#N)Cn1cc2c3c(cccc31)N(C)C(=O)C(NC(=O)c1nnc(Cc3ccccc3)[nH]1)C2` (racemic) [T-27, (±)-5-benzyl-N-(6-(2-cyanopropyl)-1-methyl-2-oxo-2,3,4,6-tetrahydro-1H-azacyclo [4,3,2-cd]indol-3-yl)-4H-1,2,4-triazole-3-carboxamide] belongs 0.01 to 0.1 µM.
Take `CN1C(=O)C(NC(=O)c2nnc(Cc3ccccc3)[nH]2)Cn2cc(-c3ccccc3C(F)(F)F)c3cccc1c32` (racemic) [T-84, (±)-5-benzyl-N-(1-methyl-2-oxo-7-(2-(trifluoromethyl)phenyl)-1,2,3,4-tetrahydro-[1,4]diazepino [3,2,1-hi]indol-3-yl)-4H-1,2,4-triazole-3-carboxamide]: the IC50 was 0.01 to 0.1 µM.
The same measure, in the same setting: to `CN1C(=O)C(NC(=O)c2nnc(Cc3ccccc3)[nH]2)Cn2cc(-c3cnoc3)c3cccc1c32` (racemic) [T-88, (±)-5-benzyl-N-(7-(isoxazol-4-yl)-1-methyl-2-oxo-1,2,3,4-tetrahydro-[1,4]diazepine [3,2,1-hi]indol-3-yl)-4H-1,2,4-triazole-3-carboxamide] belongs 0.01 to 0.1 µM.
On the same count and under the same terms, to `COc1cccc(OC)c1-c1cn2c3c(cccc13)N(C)C(=O)C(NC(=O)c1nnc(Cc3ccccc3)[nH]1)C2` (racemic) [T-85, (±)-5-benzyl-N-(7-(2,6-dimethoxyphenyl)-1-methyl-2-oxo-1,2,3,4-tetrahydro-[1,4]diazepino [3,2,1-hi]indol-3-yl)-4H-1,2,4-triazole-3-carboxamide] belongs 0.1 to 1 µM.
Still for that read-out and setting: the figure for `CN1C(=O)C(NC(=O)c2nnc(Cc3ccccc3)[nH]2)Cc2cn(-c3ncccc3C(=O)O)c3cccc1c23` (racemic) [T-46, (±)-2-(3-(5-benzyl-4H-1,2,4-triazole-3-carboxamide)-1-methyl-2-oxo-1,2,3,4-tetrahydro-6H-azacyclo [4,3,2-cd]indol-6-yl)nicotinic Acid] is 0.1 to 1 µM; for `CC(C)OC(=O)c1cccnc1-n1cc2c3c(cccc31)N(C)C(=O)C(NC(=O)c1nnc(Cc3ccccc3)[nH]1)C2` (racemic) [T-104, (±)-2-(3-(5-benzyl-4H-1,2,4-triazole-3-carboxamide)-1-methyl-2-oxo-1,2,3,4-tetrahydro-6H-azacyclo [4,3,2-cd]indol-6-yl)isopropyl Nicotinate] it is 0.01 to 0.1 µM; for `COCc1cccc(-c2cn3c4c(cccc24)N(C)C(=O)C(NC(=O)c2nnc(Cc4ccccc4)[nH]2)C3)c1` (racemic) [T-80, (±)-5-benzyl-N-(7-(3-(methoxymethyl)phenyl)-1-methyl-2-oxo-1,2,3,4-tetrahydro-[1,4]diazepino [3,2,1-hi]indol-3-yl)-4H-1,2,4-triazole-3-carboxamide] it is 0.01 to 0.1 µM.
For `CN1C(=O)C(NC(=O)c2nnc(Cc3ccccc3)[nH]2)Cc2cn(-c3ncccc3Cl)c3cccc1c23` (racemic) [T-62, (±)-5-benzyl-N-(6-(3-chloropyridin-2-yl)-1-methyl-2-oxo-2,3,4,6-tetrahydro-1H-azacyclo [4,3,2-cd]indol-3-yl)-4H-1,2,4-triazole-3-carboxamide], the half-maximal inhibitory concentration (IC50) was under 0.01 µM.
Still for that read-out and setting: the figure for `CN(C)C(=O)c1cccnc1-n1cc2c3c(cccc31)N(C)C(=O)C(NC(=O)c1nnc(Cc3ccccc3)[nH]1)C2` (racemic) [T-57, (±)-2-(3-(5-benzyl-4H-1,2,4-triazole-3-carboxamide)-1-methyl-2-oxy-1,2,3,4-tetrahydro-6H-azacyclo [4,3,2-cd]indol-6-yl)-N,N-dimethylnicotinamide] is 0.1 to 1 µM.
On the same count and under the same terms, the figure for `CN1C(=O)[C@@H](NC(=O)c2nnc(Cc3ccccc3)[nH]2)Cn2cc(-c3cn(C)nc3-c3ccccc3)c3cccc1c32` [T-122, (S)-5-benzyl-N-(1-methyl-7-(1-methyl-3-phenyl-1H-pyrazol-4-yl)-2-oxo-1,2,3,4-tetrahydro-[1,4]diazepine [3,2,1-hi]indol-3-yl)-4H-1,2,4-triazole-3-carboxamide] is 0.01 to 0.1 µM; for `CN1C(=O)C(NC(=O)c2nnc(Cc3ccccc3)[nH]2)Cn2cc(Br)c3cccc1c32` (racemic) [T-11, (±)-5-benzyl-N-(7-bromo-1-methyl-2-oxo-1,2,3,4-tetrahydro-[1,4]diazepino [3,2,1-hi]indol-3-yl)-4H-1,2,4-triazole-3-carboxamide] it is 0.01 to 0.1 µM.
The same measure, in the same setting: to `CN1C(=O)C(NC(=O)c2nnc(Cc3ccccc3)[nH]2)Cc2cn(S(=O)(=O)c3ccccc3)c3cccc1c23` (racemic) [T-21, (±)-5-benzyl-N-(1-methyl-2-oxo-6-(benzenesulfonyl)-2,3,4,6-tetrahydro-1H-aza [4,3,2-cd]indol-3-yl)-4H-1,2,4-triazole-3-carboxamide] belongs 0.1 to 1 µM; to `CC(O)c1cccnc1-n1cc2c3c(cccc31)N(C)C(=O)C(NC(=O)c1nnc(Cc3ccccc3)[nH]1)C2` (racemic) [T-58, (±)-5-benzyl-N-(6-(3-(1-hydroxyethyl)pyridin-2-yl)-1-methyl-2-oxo-2,3,4,6-tetrahydro-1H-azacyclo [4,3,2-cd]indol-3-yl)-4H-1,2,4-triazole-3-carboxamide], 0.01 to 0.1 µM; to `COCc1ccncc1-n1cc2c3c(cccc31)N(C)C(=O)C(NC(=O)c1nnc(Cc3ccccc3)[nH]1)C2` (racemic) [T-42, (±)-5-benzyl-N-(6-(4-(methoxymethyl)pyridin-3-yl)-1-methyl-2-oxo-2,3,4,6-tetrahydro-1H-azacyclo [4,3,2-cd]indol-3-yl)-4H-1,2,4-triazole-3-carboxamide], under 0.01 µM.
